Patent US20260108529A1, “FUSED AMINO PYRIMIDINE COMPOUNDS FOR TREATMENT OF TINNITUS, ACUTE SENSORINEURAL HEARING LOSS, AGE-RELATED HEARING LOSS, AND MENIERE'S DISEASE” (Ovid Therapeutics Inc., priority 2024, published 2026)

Molecular target: T1, KCC2 (Homo sapiens, UniProt Q9H2X9)
T1 construct: expressed in transfected cells; host or cells: HEK-293 (ATCC CRL-1573)
T1 sequence (Q9H2X9 1-1116 isoform Q9H2X9-2): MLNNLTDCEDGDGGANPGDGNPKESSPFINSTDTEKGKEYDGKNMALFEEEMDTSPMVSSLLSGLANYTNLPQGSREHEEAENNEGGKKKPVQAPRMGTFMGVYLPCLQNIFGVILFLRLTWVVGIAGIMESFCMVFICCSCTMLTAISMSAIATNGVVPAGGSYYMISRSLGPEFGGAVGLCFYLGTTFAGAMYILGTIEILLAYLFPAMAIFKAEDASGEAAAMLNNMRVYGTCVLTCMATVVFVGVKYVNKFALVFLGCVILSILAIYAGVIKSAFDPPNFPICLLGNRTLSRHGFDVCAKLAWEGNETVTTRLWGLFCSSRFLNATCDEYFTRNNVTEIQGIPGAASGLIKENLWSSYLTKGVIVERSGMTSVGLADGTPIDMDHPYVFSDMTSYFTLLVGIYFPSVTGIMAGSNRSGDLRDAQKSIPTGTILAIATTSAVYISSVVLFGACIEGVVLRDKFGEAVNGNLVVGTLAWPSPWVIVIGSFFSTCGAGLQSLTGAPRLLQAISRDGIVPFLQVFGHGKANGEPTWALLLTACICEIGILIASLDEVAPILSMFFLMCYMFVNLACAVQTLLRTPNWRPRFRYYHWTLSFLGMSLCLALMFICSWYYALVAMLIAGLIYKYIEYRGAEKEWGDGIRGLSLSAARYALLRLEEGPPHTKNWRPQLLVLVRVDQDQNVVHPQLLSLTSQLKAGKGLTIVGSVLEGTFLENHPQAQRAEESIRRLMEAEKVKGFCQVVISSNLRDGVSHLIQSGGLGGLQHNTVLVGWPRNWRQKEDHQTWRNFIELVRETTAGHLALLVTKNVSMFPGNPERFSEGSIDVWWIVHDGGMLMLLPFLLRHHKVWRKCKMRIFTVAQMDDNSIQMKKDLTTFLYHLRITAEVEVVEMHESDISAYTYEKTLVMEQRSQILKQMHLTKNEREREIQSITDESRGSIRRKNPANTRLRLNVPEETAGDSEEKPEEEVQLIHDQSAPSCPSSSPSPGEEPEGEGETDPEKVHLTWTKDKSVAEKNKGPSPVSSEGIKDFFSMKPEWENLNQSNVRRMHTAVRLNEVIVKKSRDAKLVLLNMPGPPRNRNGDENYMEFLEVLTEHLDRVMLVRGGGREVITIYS
Assay: Biotinylation, plasma membrane level of KCC2 in HEK-293 cells
Assay type: cell-based
Conditions: 15 min, surface/total KCC2
Experimental: Cell Culture and biotinylation. HEK-293 cells were purchased from ATCC (CRL-1573) and transfected with human KCC2 and GFP expression plasmids using Lipofectamine 2000. Cells were utilized for experimentation 48-72 h following transfection. Cells were biotinylated at 4° C. using NHS-Biotin. Following lysis and purification on immobilized avidin beads, cell surface and total fractions were subject to immunoblotting as outlined previously (Conway et al., 2017, supra).
The reliability of the biotinylation procedure was assessed via immunoblotting with antibodies against the cytosolic protein actin. Actin was present in the total lysates but was absent from the surface fractions (FIG. 2C).

C[C@@H]1CN(c2nc3c(c(Nc4ccc(C5CCCCC5)cc4)n2)COC3)CCO1 [Compound A, (R)—N-(4-cyclohexylphenyl)-2-(2-methylmorpholino)-5,7-dihydrofuro[3,4-d]pyrimidin-4-amine]
level of KCC2 on the plasma membrane (0.3 μM): 94.5±8.4 % of control
level of KCC2 on the plasma membrane (3 μM): 104.7±8.4 % of control
